Assays:
[1] = system: HCT-8 (Human colorectal cancer cell lines); assay type: cell-based
Description: (§1) In example one, pharmaceutical composition was screened and discovered natural small molecules that inhibit T cell survival and proliferation to use as therapeutics for chronic inflammatory diseases and cancers as taught in FIG. 1, T cells were stimulated with or without the indicated amount of DMGV and survival was measured by flow cytometry after 3 days. […] Solid tumor cancer cell lines were incubated with different doses of DMGV or 5-FU (5-fluorouracil), and cells survival was measured by CCK-8 after 2 days.

[2] = system: AGXT2^+/+ and AGXT2^−/− T cells; assay: Survival of AGXT2^+/+ and AGXT2^−/− T cells, 4 days, flow cytometry; assay type: cell-based, mice; details: DMGV: 504, 4 days
Description: To investigate the role of AGXT2 and DMGV in T cell survival, AGXT2^+/+ and AGXT2^−/− T cells were stimulated with the indicated compounds (ADMA: 10 μM, SDMA: 10 μM, DMGV: 504, MitoQ: 100 nM) for 4 days and the survival rate was measured by flow cytometry.

[3] = system: mouse T cells; assay: Mouse T cell survival in RPMI with or without glucose, 4 days; assay type: cell-based
Description: In order to test the effects of glycolysis on the DMGV function to inhibit survival, mouse T cells were activated with or without DMGV in RPMI with or without glucose for 4 days and the survival rates were measured by flow cytometry. […] Oxidative phosphorylation uses pyruvate, an end product of glycolysis, and thus a diminished glycolysis can decrease oxidative phosphorylation.

[4] = system: PC-3 (Human prostate cancer cell lines); assay: Solid tumor cell survival by CCK-8 after 2 days, PC-3; assay type: cell-based
Description: as §1

[5] = system: Jurkat cells; assay: T cell leukemia model, Jurkat cells injected into tail vein of mice; assay type: in vivo, NSG/SCID mice; details: 700 μg/mouse i.p.
Description: The next experiment tested whether DMGV can eliminate cancer cells in vivo. […] After 2 weeks of the injection, the level of Jurkat cells in the peripheral blood reached around 60% of the total leukocytes. The model mice were injected with either PBS (Control) or DMGV (700 μg/mouse intraperitoneal injection, i.p.) for 2 weeks as shown in FIG. 3B.

[6] = system: THP-1 (Acute monocytic leukemia cell lines); assay: Survival of hematological cancer cell line THP-1; assay type: cell-based

Substance: dimethylguanidino valeric acid [DMGV]
- inhibition of HCT-8 proliferation compared with 5-FU [1]: inhibited proliferation of HCT-8 better than a known chemotherapeutic drug, 5-FU
- proliferation of HCT-8 ([1]; CCK-8 after 2 days): suppresses proliferation
- suppression of HCT-8 proliferation, 3D versus 2D culture ([1]; Matrigel (3D) vs 2-dimensional culture): much more effective in suppressing proliferation of HCT-8 cultured in Matrigel™ (3D) than 2D
- survival of AGXT2^+/+ T cells [2]: inhibited survival of AGXT2^+/+ T cells
- survival of AGXT2^−/− T cells [2]: rescued AGXT2^−/− T cells
- T cell survival in glucose-free culture [3]: no longer affected T cell survival
- proliferation of PC-3 [4]: suppresses proliferation
- Jurkat cells in the peripheral blood ([5]; after 2 weeks of treatment): completely eliminated Jurkat cells
- cancer-induced death ([5]; after 4 weeks of treatment): prevented the cancer-induced death
- survival of THP-1 cells [6]: suppresses survival
